Data: patent publication US20220348877A1, “GENERATION OF QUIESCENT CARDIAC FIBROBLASTS FROM HUMAN INDUCED PLURIPOTENT STEM CELLS FOR IN VITRO MODELING OF CARDIAC FIBROSIS” (The Board of Trustees of the Leland Stanford Junior …, priority 2019, published 2022)
Entries after “also recorded” stand apart in the source; their conditions may differ.

Key:
human iPSC-CFs [1] = assay: Collagen gel contraction assay; type: cell-based; details: gels imaged after 24 hrs
Experimental: Gel contraction assay. Collagen gel contraction assays were performed in three independent lines of iPSC-CFs (2.0×10^5 cells per well) using a Cell Contraction Assay kit (CBA5020, Cell Biolabs) as per the manufacturer's protocol. The cells were treated in the absence or presence of TGF-β±a TGF-β inhibitor SB431542 (SB). The gels were imaged after 24 hrs and gel area was quantified using ImageJ software (version 1.49).

human iPSC-CFs [2] = assay: Quantitative real-time PCR of gene expression in drug-treated iPSC-CFs; type: cell-based
Experimental: (§1) Quantitative real-time PCR. Total RNA was isolated using the Qiagen miRNeasy Mini Kit (Qiagen Sciences, Inc, Germantown, Md.) following the manufacturer's instruction. For reverse transcription, a High Capacity RNA-to-cDNA kit (Life Technologies) was used, and the cDNA template was synthesized based on 1 μg of total mRNA. After mixing 0.2 μl of the cDNA template, 1 μl of TaqMan® primer sets (Life Technologies), 10 μl of TaqMan® Master Mix (Life Technologies), and 8.8 μl of ddH2O in the reaction system, real-time quantitative PCR was performed on the StepOne™ Real-Time PCR System (Life Technologies). Each reaction was run in triplicate. Expression values were normalized to the average expression of GAPDH.
(§2) Drug treatment. Unless otherwise stated, cells were treated with all drugs for 48 hrs. We used 5 ng/ml of TGFβ1 (240-B-010, R&D) to activate iPSC-CFs. Due to the short half-life, BNP (CYT-369, Prospec) was added into the medium three times a day. We used 20 μM of sacubitril (SML1380, Sigma) to inhibit ANP/BNP degradation. We used pirfenidone (S2907, Selleck Chemicals) and doxorubicin (25316-40-9, Selleck Chemicals) to test their anti-fibrotic and pro-fibrotic effects on iPSC-CFs, respectively.

human iPSC-CFs [3] = assay: Immunoblotting of α-SMA in drug-treated iPSC-CFs; type: cell-based
Experimental: (§3) Immunoblotting and quantification. Cultured cells were homogenized in the RIPA buffer with proteinase and phosphatase inhibitor cocktails (78440, ThermoFisher), and quantified by Pierce™ BCA Protein Assay Kit (Pierce Biotechnology Inc.). A total of 20 μg protein was separated on NuPAGE® Novex® 4-12% Bis-Tris Protein Gels (Invitrogen, Carlsbad, Calif.). After being transferred to Amersham™ Hybond™ Blotting Membranes (GE Healthcare), proteins were incubated with primary antibodies against α-SMA (ab7817, Abcam), periostin (ab14041, Abcam), collagen Ill (ab7778, Abcam), fibronectin (ab6328, Abcam), MYH7 (sc-53089, Santa Cruz), and GAPDH (MA5-15738, Invitrogen). Band intensities for target bands were analyzed and quantified by the ImageJ Fuji program.
as §2

human iPSC-CFs [4] = assay: Flow cytometry (FACS) of α-SMA+ myofibroblast population; type: cell-based; details: for effect on TGF-β-induced upregulation of α-SMA / propagation of the α-SMA+ population: in presence of TGF-β, FIG. 5I
Experimental: Fluorescence-activated cell sorting (FACS) analysis. Cells were dissociated into singlets by TrypLE™ (12605, Gibco) for 10 min at 37° C., and the cell suspension was filtered through a 40-μm cell strainer (BD Falcon, San Diego) to remove cell clumps. Single cells were fixed and permeabilized by BD CytofixCytoperm™ buffer (BD 554722) for 20 min at 4° C. Next, cells were incubated with primary antibodies followed by Alexa Fluor™ secondary antibodies (Invitrogen). Primary antibodies against COLI (ab90395, Abcam), DDR2 (sc-81707, Santa Cruz), TCF21 (hpa013189, Sigma-Aldrich), α-SMA (ab7817, Abcam), and WT1 (ab89901, Abcam) were used. The percentage of fibroblasts was calculated as the ratio of TCF21+, DDR2+, and COL-1+ cells in the whole population, respectively. The percentage of myofibroblasts was calculated as the ratio of α-SMA+ cells in the whole population.
as §2

human iPSC-CFs [5] = assay: CF differentiation and passaging in the presence of TGF-β inhibitor; type: cell-based
Experimental: Differentiation of human iPSC-derived cardiac fibroblasts. Human iPSCs were treated with 6 μM of CHIR99021 for 2 days, recovered in RPMI+B27-insulin for 24 hrs, treated with 5 μM of IWR-1 (10161, Sigma) for 2 days, and then RPMI+B27-insulin for another 24 hrs. On day 6, human induced pluripotent stem cell-derived cardiac progenitor cells (iPSC-CPCs) were re-plated at a density of 20,000 cells/cm2 in advanced DMEM medium (12634028, Gibco®, Life Technologies). On day 7 or 8, cells were treated with 5 μM of CHIR99021 and 2 μM of retinoic acid (R2625, Sigma-Aldrich) for 2 days, and recovered in advanced DMEM for 3 days. Typically, the purity of human induced pluripotent stem cell-derived epicardial cells (iPSC-EPCs) is >90% (WT1+). Human iPSC-EPCs were re-plated and treated with […] (100-18B, PeproTech) and 10 μM of SB431542 (S1067, Selleck chemicals) in a fibroblast growth medium for another 6 days. >90% purity of iPSC-CFs (COL-I+/DDR2+/TCF21+) can be achieved as assessed by FACS. Cultures were maintained in a humidified atmosphere (95% air, 5% CO2) at 37° C.
Differentiation of Quiescent Cardiac Fibroblasts from iPSC Derived Epicardial Cells. 1. On day 14, prepare fibroblast growth medium containing 20 ng/ml of FGF2 and 10 μM of SB431542. 2. Aspirate the spent medium, add 1 ml of Accutase per well in a 6-well plate, and incubate the plate in a […], 5% CO2 incubator for 5 min. […]

[6] = test system: human iPSC-CFs co-cultured with iPSC-CMs; assay: Indirect co-culture of iPSC-CFs with iPSC-CMs in the presence of TGF-β ± sacubitril (qPCR, immunoblot); type: cell-based
Experimental: as §1, §3, §2
Indirect and direct contact co-culture. […] As a control, iPSC-CMs were co-cultured with iPSC-CMs in the transwells. The co-cultures were incubated at 37° C. and 5% CO2 before analysis. For direct contact co-culture, we first labeled fibroblasts and iPSC-CMs with CFSE (C34554, Thermo Fischer) and Far cell trace red (C34564, Thermofisher) dyes, respectively. Then, iPSC-CFs were seeded on top of the iPSC-CM monolayer at a ratio of 1:5, allowing for direct cell-cell contact. After 5 days of co-culture, the two cell types were separated by FACS sorting for downstream molecular analyses. The medium used for co-culture is the mixture of RPMI+B27 and fibroblast growth medium at a ratio of 3:1.

[7] = circulatory system; degrading enzyme neprilysin; cited from earlier work
human iPSC-CFs [8] = assay: Sirius red colorimetric assay of secreted collagen, iPSC-CFs; type: cell-based; details: 48 hrs
Experimental: Colorimetric assays. The cells were treated in the absence or presence of TGF-β for 48 hrs. Quantification of total secreted collagen in the cell culture supernatant was performed using a Sirius red collagen detection kit (9062, Chondrex). The colorimetric assay was performed according to the manufacturer's protocol.

primary CFs = assay: Sirius red colorimetric assay of secreted collagen, primary CFs; type: cell-based, human; details: 48 hrs
Experimental: (§4) Human primary skin, cardiac, lung, bladder fibroblast, and brain pericyte cultures. Human primary cardiac fibroblasts were isolated and cultured as follows: a piece of fresh right atrial biopsy was weighed, minced into small pieces (1-2 mm^3), and digested in 6-well peri-dishes as described. Human primary cardiac fibroblasts were grown and maintained in a fibroblast growth medium (C-23025, Promocell) supplemented with 1% penicillin-streptomycin (15140-122, Gibco) in a humidified atmosphere (95% air, 5% CO2) at 37° C. The medium was renewed every 2-3 days. Cells were passaged using standard trypsinization techniques at 80-90% confluency. The same protocol was also used to isolate and culture fibroblasts from human skin and lung tissues. Primary bladder fibroblasts were purchased from Lifeline (FC-0050) and maintained in the same fibroblast growth medium. Human brain pericytes were purchased from Cell systems (ACBRI 498) and cultured in SmGM-2 medium (Lonza, CC-3182). All experiments were carried out using cells at low cell passages (<P4) and cells were serum-starved for 24 hrs before treatment.
Colorimetric assays. The cells were treated in the absence or presence of TGF-β for 48 hrs. Quantification of total secreted collagen in the cell culture supernatant was performed using a Sirius red collagen detection kit (9062, Chondrex). […]

human primary CFs = assay: Quantitative real-time PCR of cardiac-specific genes in primary CFs; type: cell-based
Experimental: as §4, with “All experiments were carried out using cells at low cell passages (<P4) and cells were serum-starved for 24 hrs before treatment.” left out
Quantitative real-time PCR. […] After mixing 0.2 μl of the cDNA template, 1 μl of TaqMan® primer sets (Life Technologies), 10 μl of TaqMan® Master Mix (Life Technologies), and 8.8 μl of ddH2O in the reaction system, real-time quantitative PCR was performed on the StepOne™ Real-Time PCR System (Life Technologies). […]

NC(=O)c1ccc(-c2nc(-c3ccc4c(c3)OCO4)c(-c3ccccn3)[nH]2)cc1 [SB431542, 4-[4-(1,3-benzodioxol-5-yl)-5-(2-pyridinyl)-1H-imidazol-2-yl]benzamide, reference compound]
effect on TGF-β-induced collagen gel contraction (human iPSC-CFs [1]; TGF-β ± SB): completely abrogated | effect on TGF-β-induced upregulation of myofibroblast markers ACTA2 and POSTN (human iPSC-CFs [2]; TGF-β ± SB): effectively inhibited | effect on TGF-β-induced increase of α-SMA protein levels (human iPSC-CFs [3]; CFs from different human iPSC lines, TGF-β ± SB): abolished | effect on TGF-β-induced upregulation of α-SMA / propagation of the α-SMA+ population (human iPSC-CFs [4]): significantly suppresses | levels of smooth muscle marker genes (ACTA2, CNN1, TAGLN, SMTN, MYH11) in iPSC-CFs (human iPSC-CFs [5]; SB added during CF differentiation, transcriptional and protein levels): negligible levels | αSMA+ cells (quiescent state preserved) (human iPSC-CFs [5]; until passage 5, inhibitor present in fibroblast growth medium): ~5%

COc1cccc2c1C(=O)c1c(O)c3c(c(O)c1C2=O)C[C@@](O)(C(=O)CO)C[C@@H]3O[C@H]1C[C@H](N)[C@H](O)[C@H](C)O1 [doxorubicin]
induction of the α-SMA+ population (pro-fibrosis phenotype) (human iPSC-CFs [4]; FIG. 5J, vs ctrl group): dose-dependent pattern; also recorded: dose-dependent induction

Cc1ccc(=O)n(-c2ccccc2)c1 [pirfenidone]
effect on TGF-β-induced upregulation of α-SMA / propagation of the α-SMA+ population (human iPSC-CFs [4]): significantly suppresses | effect on TGF-β-induced upregulation of α-SMA / propagation of the α-SMA+ population (human iPSC-CFs [4]; listed as Pirfenidone): dose dependent inhibitory effect

CCOC(=O)[C@H](C)C[C@@H](Cc1ccc(-c2ccccc2)cc1)NC(=O)CCC(=O)O [sacubitril]
mRNA levels of myofibroblast markers and ECM genes in the co-cultured condition ([6]; TGF-β, 20 μM sacubitril): further decreased | protein levels of myofibroblast markers and ECM genes in the co-cultured condition ([6]; TGF-β, 20 μM sacubitril): further decreased | anti-fibrotic effect seen in co-culture ([6]; iPSC-CMs and iPSC-CFs co-culture): significantly enhanced | myofibroblast marker periostin ([6]; only when added to the co-culture system): significantly decreased

atrial natriuretic peptide [ANP]
half-life [7]: 3 min

brain natriuretic peptide [BNP]
mRNA levels of CF markers (PDGFRA and TCF21) (human iPSC-CFs [2]; in the presence of TGF-β): higher levels | mRNA levels of myofibroblast markers and ECM genes (ACTA2, POSTN, COL1A1, COL3A1) (human iPSC-CFs [2]; in the presence of TGF-β): significantly lower | α-SMA protein levels with escalating concentrations (human iPSC-CFs [3]; in the presence of TGF-β, dose-dependent manner): significantly suppressed | half-life [7]: 20 min

transforming growth factor-β [TGF-β]
collagen gel contraction effect vs vehicle group (human iPSC-CFs [1]): stronger | expression levels of ACTA2 and POSTN vs vehicle treatment (human iPSC-CFs [2]; 5 ng/ml TGFβ1, 48 hrs): significantly increased | expression levels of ECM genes COL1A1, COL3A1, COL4A2, FN1 (human iPSC-CFs [2]; vs vehicle): significantly increased | expression of MMP1 (human iPSC-CFs [2]; vs vehicle): downregulation | expression of MMP2 (human iPSC-CFs [2]; vs vehicle): upregulation | expression of TIMP1, TIMP2, TIMP3 (human iPSC-CFs [2]; vs vehicle): upregulation | expression of proteoglycans (VCAN, CTGF, KAL1, TNC, SPARC) and focal adhesion molecules (ITGA4, ITGA5, ITGB5) (human iPSC-CFs [2]; vs vehicle): upregulated expression | α-SMA protein levels after treatment (human iPSC-CFs [3]; CFs from different human iPSC lines): significantly increased | secreted collagen content (human iPSC-CFs [8]): rise in collagen content | secreted collagen content (primary CFs): rise in collagen content | expression levels of cardiac-specific genes (GATA4, TBX20, TCF21) vs vehicle-treated cells (human primary CFs): significantly downregulated
